Counter-ions that a name gives are not always drawn.
Key:
[1] = In vitro rat plasma stability assay, formation of tafamidis; format: in vitro ADME; settings: 37° C., 2 µM test compound
Protocol: A stability assay in plasma (rat or human) was used to evaluate the ability of a compound provided herein to convert to an active TTR stabilizer. The test compound was added to plasma and incubated at 37° C. in a water bath at a concentration of 2 µM. At each time point (0, 10, 30, 60 and 120 min or 0, 60, 120, 180 and 240 min), stop solution (tolbutamide plus labetalol) was added to precipitate protein and mixed thoroughly. After centrifugation, an aliquot of supernatant was analyzed by LC-MS/MS. The percentage of formation of active agent was calculated at each time point.

[2] = In vitro rat liver S9 stability assay, formation of tafamidis; format: in vitro ADME; settings: rat liver S9, 37° C., 1 µM test compound
Protocol: The test compound was added to liver S9 and incubated at 37° C. in a water bath at a concentration of 1 µM. At each time point (0, 5, 10, 20, 30 and 60 min), stop solution (tolbutamide plus labetalol) was added to precipitate protein and mixed thoroughly. After centrifugation, an aliquot of supernatant was analyzed by LC-MS/MS. The percentage of formation of active agent was calculated at each time point.

[3] = In vivo rat PK: tafamidis in plasma, CSF and brain; design: species or system Male Sprague-Dawley (SD) rats; settings: for Tafamidis CSF/Plasma Ratio over 24 hrs (po): po administration of test compound
Text: For a compound provided herein to be an effective TTR stabilizer drug to halt and/or prevent the ocular and cerebral TTR amyloid deposition TTR amyloidosis, it has to be able to penetrate into the brain and CSF (surrogate for eye penetration) and deliver a sufficient amount of TTR stabilizer to stop TTR dissociation. A pharmacokinetic study in rat was used to evaluate the compounds. Male Sprague-Dawley (SD) rats (200-220 g weight) were acclimated for at least 2 to 3 days before being placed on study. All animals had access to certified rodent diet and water at libitum. Appropriate amount of the test compound was accurately weighed and mixed with appropriate volume of vehicle (such as DMSO/sterile water for iv dosing or 0.5% methylcellulose homogenous suspension or solution for oral administration or as a solution in a mixture NMP/PEG400/solutol/water) to administer a dose of 2, 5 or 10 mg/kg. For IV dosing the test compound was administered via tail vein or indwelling cannula. For oral dosing, the test compound was administered by oral gavage. Blood and CSF samples were collected at selected timepoints. Blood collection was performed from saphenous vein or tail vein of each animal into polypropylene tubes at each timepoint. All blood samples were transferred into EDTA-K2 tubes and centrifuged for 15 minutes at 4° C. for plasma collection. Plasma samples were kept at -80° C. until LC/MSMS analysis. CSF was collected from cisterna magna at each timepoint and quick frozen over dry ice and kept at -80° C. until LC/MSMS analysis. Brains were harvested immediately after the terminal bleeding (~ 24 hrs post dosing). The blood of the brain was perfused with normal saline. The brain was quickly picked and placed into centrifuge tube. The weight of brain samples was recorded. 4-Fold homogenization solution (MeOH/15 mM PBS (1:2)) was added into the tube according to the weighed samples. The brain was homogenized using a Polytron (3 strokes or more until homogenous, each 30 seconds) on wet ice. The samples were quick frozen over dry ice and kept at -80° C. until LC/MSMS analysis. Using a LC-MSMS method for the quantitative determination of test compound in biological matrixes, amount of test compound and active agent were measured in plasma and CSF at selected timepoints post-dosing and in brain at 24 hrs post dosing. Plasma concentration versus time data was analyzed by non-compartmental approaches using the Phoenix WinNonlin 6.3 software program. As reference, an oral dose of 2 mg/kg of tafamidis gave a CSF to plasma ratio over 24 hrs around 0.01 and a brain to plasma ratio at 24 hrs around 0.02.

Compound | Formation of tafamidis at 120 min [1] | Formation of tafamidis at 60 min [2] | Tafamidis CSF/Plasma Ratio (iv) ([3]; iv administration of test compound) | Tafamidis CSF/Plasma Ratio over 24 hrs (po) [3]
O=C(OC1CCNC1)c1ccc2nc(-c3cc(Cl)cc(Cl)c3)oc2c1 (stereo not shown) [Compound 17, pyrrolidin-3-yl 2-(3,5-dichlorophenyl)benzo[d]oxazole-6-carboxylate hydrochloride] | A (A is <25%) | A (A is <25%) | – | –
CCN(C)CCCOC(=O)c1ccc2nc(-c3cc(Cl)cc(Cl)c3)oc2c1 [Compound 48, 3-(ethyl(methyl)amino)propyl 2-(3,5-dichlorophenyl)benzo[d] oxazole-6-carboxylate hydrochloride] | B (B is ≥25 to <50%) | – | A (A is <0.015) | –
CC(CCn1ccnc1)OC(=O)c1ccc2nc(-c3cc(Cl)cc(Cl)c3)oc2c1 (stereo not shown) [Compound 178, 4-(1H-imidazol-1-yl)butan-2-yl 2-(3,5-dichlorophenyl)-benzo [d] oxazole-6-carboxylate] | C (C is ≥50 to <75%) | C (C is ≥50 to <75%) | – | –
N#CCN1CCC(OC(=O)c2ccc3nc(-c4cc(Cl)cc(Cl)c4)oc3c2)C1 (stereo not shown) [Compound 176] | C (C is ≥50 to <75%) | D (D is ≥75%) | – | –
Cn1ccnc1CCOC(=O)c1ccc2nc(-c3cc(Cl)cc(Cl)c3)oc2c1 [Compound 177] | D (D is ≥75%) | D (D is ≥75%) | – | –
CC(CN1CCOCC1)OC(=O)c1ccc2nc(-c3cc(Cl)cc(Cl)c3)oc2c1 (stereo not shown) [Compound 143] | – | B (B is ≥25 to <50%) | – | A (A is < 0.015)
O=C(OCCn1ccnc1)c1ccc2nc(-c3cc(Cl)cc(Cl)c3)oc2c1 [Compound 99] | B (B is ≥25 to <50%) | D (D is ≥75%) | – | –
O=C(OC1CC2CCC1CN2)c1ccc2nc(-c3cc(Cl)cc(Cl)c3)oc2c1 (stereo not shown) [Compound 27, 2-azabicyclo[2.2.2]octan-5-yl 2-(3,5-dichlorophenyl)benzo [d]oxazole-6-carboxylate hydrochloride] | A (A is <25%) | A (A is <25%) | – | –
O=C(OCc1ncc[nH]1)c1ccc2nc(-c3cc(Cl)cc(Cl)c3)oc2c1 [Compound 89] | C (C is ≥50 to <75%) | D (D is ≥75%) | – | –
O=C(OCC1CCCO1)c1ccc2nc(-c3cc(Cl)cc(Cl)c3)oc2c1 (stereo not shown) [Compound 86] | D (D is ≥75%) | D (D is ≥75%) | – | –
CN1CC(OC(=O)c2ccc3nc(-c4cc(Cl)cc(Cl)c4)oc3c2)C(F)(F)C1 (stereo not shown) [Compound 175] | D (D is ≥75%) | D (D is ≥75%) | – | –
O=C(OC1CCN2CCCC12)c1ccc2nc(-c3cc(Cl)cc(Cl)c3)oc2c1 (stereo not shown) [Compound 180, Hexahydro-1H-pyrrolizin-1-yl 2-(3,5-dichlorophenyl)benzo[d]oxazole-6-carboxylate] | B (B is ≥25 to <50%) | A (A is <25%) | – | –
O=C(OCc1ccccn1)c1ccc2nc(-c3cc(Cl)cc(Cl)c3)oc2c1 [Compound 103] | B (B is ≥25 to <50%) | D (D is ≥75%) | – | –
CCNC(=O)c1ccc2nc(-c3cc(Cl)cc(Cl)c3)oc2c1 [Compound 183] | A (A is <25%) | A (A is <25%) | – | –
CC1CCC(OC(=O)c2ccc3nc(-c4cc(Cl)cc(Cl)c4)oc3c2)C1 (stereo not shown) [Compound 185] | A (A is <25%) | B (B is ≥25 to <50%) | – | –
CC(C)(C)N1CCC(OC(=O)c2ccc3nc(-c4cc(Cl)cc(Cl)c4)oc3c2)C1 (stereo not shown) [Compound 92] | B (B is ≥25 to <50%) | A (A is <25%) | – | –
O=C(OC1CCc2nccn2C1)c1ccc2nc(-c3cc(Cl)cc(Cl)c3)oc2c1 (stereo not shown) [Compound 157, 5,6,7,8-tetrahydroimidazo[1,2-a]pyridin-6-yl 2-(3,5-dichlorophenyl)benzo[d]oxazole-6-carboxylate hydrochloride] | B (B is ≥25 to <50%) | A (A is <25%) | – | –
N#CCCN1CCC(OC(=O)c2ccc3nc(-c4cc(Cl)cc(Cl)c4)oc3c2)C1 (stereo not shown) [Compound 179] | B (B is ≥25 to <50%) | C (C is ≥50 to <75%) | – | –
CN(C)[C@H]1CCC[C@@H]1OC(=O)c1ccc2nc(-c3cc(Cl)cc(Cl)c3)oc2c1 [Compound 116] | – | A (A is <25%) | – | A (A is < 0.015)
CN1CC2CCC1CC2OC(=O)c1ccc2nc(-c3cc(Cl)cc(Cl)c3)oc2c1 (stereo not shown) [Compound 32, 2-methyl-2-azabicyclo[2.2.2]octan-5-yl 2-(3,5-dichlorophenyl) benzo [d]oxazole-6-carboxylate] | A (A is <25%) | A (A is <25%) | – | –
O=C(OCCN1CCCCC1)c1ccc2nc(-c3cc(Cl)cc(Cl)c3)oc2c1 [Compound 34, 2-(piperidin-1-yl)ethyl 2-(3,5-dichlorophenyl)benzo[d] oxazole-6-carboxylate] | A (A is <25%) | C (C is ≥50 to <75%) | – | –
O=C(OCCN1CCOCC1)c1ccc2nc(-c3cc(Cl)cc(Cl)c3)oc2c1 [Compound 80] | B (B is ≥25 to <50%) | D (D is ≥75%) | – | –
CN1CCCC1COC(=O)c1ccc2nc(-c3cc(Cl)cc(Cl)c3)oc2c1 (stereo not shown) [Compound 61, (1-methylpyrrolidin-2-yl)methyl 2-(3,5-dichlorophenyl)benzo [d] oxazole-6-carboxylate] | D (D is ≥75%) | C (C is ≥50 to <75%) | – | –
O=C(OCCC1CCOC1)c1ccc2nc(-c3cc(Cl)cc(Cl)c3)oc2c1 (stereo not shown) [Compound 96, 2-(tetrahydrofuran-3-yl)ethyl 2-(3,5-dichlorophenyl)benzo[d] oxazole-6-carboxylate] | C (C is ≥50 to <75%) | – | – | –
CC(C)(C)OC(=O)N[C@H](Cc1ccc(OC(=O)c2ccc3nc(-c4cc(Cl)cc(Cl)c4)oc3c2)cc1)C(=O)O [Compound 70] | B (B is ≥25 to <50%) | – | – | –
Cn1ccnc1COC(=O)c1ccc2nc(-c3cc(Cl)cc(Cl)c3)oc2c1 [Compound 98] | C (C is ≥50 to <75%) | D (D is ≥75%) | – | –
CC(C)(C)OC(=O)N1CC2CCC1CC2OC(=O)c1ccc2nc(-c3cc(Cl)cc(Cl)c3)oc2c1 (stereo not shown) [Compound 26, 2-(tert-butoxycarbonyl)-2-azabicyclo[2.2.2]octan-5-yl 2-(3,5-dichlorophenyl) benzo [d] oxazole-6-carboxylate] | A (A is <25%) | A (A is <25%) | – | –
CC(=O)OCC(COC(C)=O)OC(=O)c1ccc2nc(-c3cc(Cl)cc(Cl)c3)oc2c1 [Compound 2, 2-(2-(3,5-Dichlorophenyl)benzo[d]oxazole-6-carbonyloxy)propane-1,3-diyl diacetate] | B (B is ≥25 to <50%) | – | – | –
NCCOC(=O)c1ccc2nc(-c3cc(Cl)cc(Cl)c3)oc2c1 [Compound 15, 2-aminoethyl 2-(3,5-dichlorophenyl)benzo[d]oxazole-6-carboxylate] | A (A is <25%) | – | – | –
CC(C)(C)OC(=O)N[C@@H](Cc1cccc(OC(=O)c2ccc3nc(-c4cc(Cl)cc(Cl)c4)oc3c2)c1)C(=O)OCc1ccccc1 [Compound 19, (S)-3-(3-(benzyloxy)-2-((tert-butoxycarbonyl)amino)-3-oxopropyl) phenyl 2-(3,5-dichlorophenyl)benzo[d]oxazole-6-carboxylate] | B (B is ≥25 to <50%) | – | – | –

Reference: patent US20230287021A1, “COMPOUNDS, COMPOSITIONS AND METHODS FOR STABILIZING TRANSTHYRETIN AND INHIBITING TRANSTHYRETIN MISFOLDING” (Protego Biopharma, Inc., priority 2020, published 2023)
